Reference: patent publication US20060069132A1, “Azolecarboxamide herbicides” (priority 2004, published 2006)
Read-outs that look alike come from different tables or passages of the source.

Columns and labels:
lambsquarters = test: Test B pre-/postemergence herbicide test; type: in vivo, Chenopodium album; settings: for Plant response rating (0 to 100 scale), Lambsquarters: 0 is no effect
Summary of the method: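 Response was scored visually 13 to 15 days after treatment against untreated greenhouse controls, 0 meaning no effect and 100 complete control. Formulations (solvent mixture plus surfactant) went onto soil after planting, onto foliage of 1- to 4-leaf plants, and onto 2-leaf plants in a flooded paddy set including rice and barnyardgrass.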

morningglory = test: Test B pre-/postemergence herbicide test; type: in vivo, Ipomoea coccinea; settings: for Plant response rating (0 to 100 scale), Morningglory: 0 is no effect
Summary of the method: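 Formulation: non-phytotoxic solvent mix with surfactant. Timing: preemergence on seed and postemergence on 2–18 cm plants, applied concurrently. Readout after 13–15 d greenhouse: visual 0–100 control rating against controls.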

cocklebur = test: Test C pre-/postemergence herbicide test; type: in vivo, Xanthium strumarium
Summary of the method: (§1)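 Seeds were planted and sprayed preemergence with test chemicals in a non-phytotoxic solvent mixture containing surfactant; postemergence treatments went onto plants 2 to 18 cm tall (1- to 4-leaf stage). After 12 to 14 days in a greenhouse, injury was rated visually against untreated controls on a 0–100 scale.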

kochia = test: Test C pre-/postemergence herbicide test; type: in vivo, Kochia scoparia
Summary of the method: as §1

eastern black nightshade = test: Test C pre-/postemergence herbicide test; type: in vivo, Solanum ptycanthum
Summary of the method: as §1

yellow nutsedge = test: Test C pre-/postemergence herbicide test; type: in vivo, Cyperus esculentus
Summary of the method: as §1

soybean = test: Test C pre-/postemergence herbicide test; type: in vivo, Glycine max
Summary of the method: as §1

[1] = 125 g ai/ha, 100 is complete control, preemergence
[2] = 125 g ai/ha, visual rating, scale 0 (no effect) to 100 (complete control), postemergence
[3] = 500 g ai/ha, visual rating, 0 = no effect, 100 = complete control, preemergence
[4] = postemergence, 500 g ai/ha, scale 0 to 100, 0 is no effect, 100 is complete control
[5] = 62 g ai/ha, preemergence, scale 0 to 100
[6] = 125 g ai/ha, scale 0 (no effect) to 100 (complete control), visual, 12 to 14 days, preemergence
[7] = 250 g ai/ha, scale 0-100, preemergence
[8] = Postemergence, 250 g ai/ha, scale 0 to 100, 0 no effect, 100 complete control
[9] = postemergence, 125 g ai/ha, scale 0 to 100
[10] = postemergence, 62 g ai/ha, scale 0 to 100
[11] = 500 g ai/ha, scale 0 to 100 (0 no effect, 100 complete control), visual, 12 to 14 days, preemergence
[12] = Postemergence, 500 g ai/ha, scale 0 to 100

CCn1nc(C(C)(C)C)cc1C(=O)Nc1cccc(OC(F)(F)C(F)F)c1 [Compound 333]
Plant response rating (0 to 100 scale), Lambsquarters (lambsquarters; [1]): 40
Lambsquarters plant response rating (lambsquarters; [2]): 90
Plant response rating, Lambsquarters (lambsquarters; [3]): 100
Lambsquarters plant response rating (lambsquarters; [4]): 100
Plant response rating (0 to 100 scale), Morningglory (morningglory; [1]): 0
Morningglory plant response rating (morningglory; [2]): 30
Plant response rating, Morningglory (morningglory; [3]): 10
Morningglory plant response rating (morningglory; [4]): 60
Plant response rating, Cocklebur (cocklebur; [5]): 0
Plant response rating, Cocklebur (cocklebur; [6]): 0
Plant response rating, Cocklebur (cocklebur; [7]): 0
Plant response rating, Cocklebur (cocklebur; [8]): 80
Cocklebur plant response rating (cocklebur; Preemergence, 500 g ai/ha, scale 0 to 100, 0 no effect, 100 complete control): 5
Plant response rating, Cocklebur (cocklebur; [9]): 5
Plant response rating, Cocklebur (cocklebur; [10]): 0
Plant response rating, Kochia (kochia; [5]): 80
Plant response rating, Kochia (kochia; [6]): 100
Plant response rating, Kochia (kochia; [7]): 100
Plant response rating, Kochia (kochia; [11]): 100
Kochia plant response rating (kochia; [12]): 100
Plant response rating, Kochia (kochia; [8]): 100
Plant response rating, Kochia (kochia; [9]): 100
Plant response rating, Kochia (kochia; [10]): 90
Plant response rating, Nightshade (eastern black nightshade; [6]): 20
Plant response rating, Nightshade (eastern black nightshade; [7]): 98
Plant response rating, Nightshade (eastern black nightshade; [11]): 100
Plant response rating, Nutsedge, Yellow (yellow nutsedge; [5]): 0
Plant response rating, Nutsedge, Yellow (yellow nutsedge; [6]): 0
Plant response rating, Nutsedge, Yellow (yellow nutsedge; [7]): 0
Plant response rating, Nutsedge, Yellow (yellow nutsedge; [11]): 0
Nutsedge, Yellow plant response rating (yellow nutsedge; [12]): 0
Plant response rating, Nutsedge, Yellow (yellow nutsedge; [8]): 0
Plant response rating, Nutsedge, Yellow (yellow nutsedge; [9]): 0
Plant response rating, Nutsedge, Yellow (yellow nutsedge; [10]): 0
Plant response rating, Soybean (soybean; [5]): 0
Plant response rating, Soybean (soybean; [7]): 0
Plant response rating, Soybean (soybean; [11]): 0
Soybean plant response rating (soybean; [12]): 45
Plant response rating, Soybean (soybean; [8]): 40
Plant response rating, Soybean (soybean; [9]): 30
Plant response rating, Soybean (soybean; [10]): 30

CCNC(=O)c1ccc(F)c(NC(=O)C2CN(C(C)(C)C)N=C2CC)c1 (centres unmarked) [Compound 336, 1-(1,1-dimethylethyl)-3-ethyl-N-[5-[(ethylamino)carbonyl]-2-fluorophenyl]-4,5-dihydro-1H-pyrazole-4-carboxamide]
Plant response rating (0 to 100 scale), Lambsquarters (lambsquarters; [1]): 90
pest or weed control at 125 g/ha (lambsquarters; Chenopodium album, post-emergence, 336 h, 125 g ai/ha, visual rating, scale 0 (no effect) to 100 (complete control), read-out: Lambsquarters plant response rating): 60%
pest or weed control at 500 g/ha (lambsquarters; Chenopodium album, post-emergence, 336 h, postemergence, 500 g ai/ha, scale 0 to 100, 0 is no effect, 100 is complete control, read-out: Lambsquarters plant response rating): 90%
pest or weed control at 500 g/ha (lambsquarters; Chenopodium album, pre-emergence, 336 h, 500 g ai/ha, visual rating, 0 = no effect, 100 = complete control, read-out: Plant response rating, Lambsquarters): 100%
Plant response rating (0 to 100 scale), Morningglory (morningglory; [1]): 20
pest or weed control at 125 g/ha (morningglory; Ipomoea, post-emergence, 336 h, 125 g ai/ha, visual rating, scale 0 (no effect) to 100 (complete control), read-out: Morningglory plant response rating): 40%
pest or weed control at 500 g/ha (morningglory; Ipomoea, post-emergence, 336 h, postemergence, 500 g ai/ha, scale 0 to 100, 0 is no effect, 100 is complete control, read-out: Morningglory plant response rating): 70%
pest or weed control at 500 g/ha (morningglory; Ipomoea, pre-emergence, 336 h, 500 g ai/ha, visual rating, 0 = no effect, 100 = complete control, read-out: Plant response rating, Morningglory): 70%
pest or weed control at 62 g/ha (cocklebur; Xanthium strumarium, pre-emergence, 312 h, 62 g ai/ha, preemergence, scale 0 to 100, read-out: Plant response rating, Cocklebur): 0%
pest or weed control at 125 g/ha (cocklebur; Xanthium strumarium, pre-emergence, 312 h, 125 g ai/ha, scale 0 (no effect) to 100 (complete control), visual, 12 to 14 days, read-out: Plant response rating, Cocklebur): 5%
pest or weed control at 250 g/ha (cocklebur; Xanthium strumarium, pre-emergence, 312 h, 250 g ai/ha, scale 0-100, read-out: Plant response rating, Cocklebur): 30%
pest or weed control at 500 g/ha (cocklebur; Xanthium strumarium, pre-emergence, 312 h, 500 g ai/ha, scale 0 to 100 (0 no effect, 100 complete control), visual, 12 to 14 days, read-out: Plant response rating, Cocklebur): 50%
pest or weed control at 62 g/ha (kochia; Bassia scoparia, pre-emergence, 62 g ai/ha, preemergence, scale 0 to 100, read-out: Plant response rating, Kochia): 5%
pest or weed control at 125 g/ha (kochia; Bassia scoparia, pre-emergence, 125 g ai/ha, scale 0 (no effect) to 100 (complete control), visual, 12 to 14 days, read-out: Plant response rating, Kochia): 70%
pest or weed control at 250 g/ha (kochia; Bassia scoparia, pre-emergence, 250 g ai/ha, scale 0-100, read-out: Plant response rating, Kochia): 100%
pest or weed control at 500 g/ha (kochia; Bassia scoparia, pre-emergence, 500 g ai/ha, scale 0 to 100 (0 no effect, 100 complete control), visual, 12 to 14 days, read-out: Plant response rating, Kochia): 100%
pest or weed control at 62 g/ha (eastern black nightshade; pre-emergence, 62 g ai/ha, preemergence, scale 0 to 100, read-out: Plant response rating, Nightshade): 85%
pest or weed control at 125 g/ha (eastern black nightshade; pre-emergence, 125 g ai/ha, scale 0 (no effect) to 100 (complete control), visual, 12 to 14 days, read-out: Plant response rating, Nightshade): 95%
pest or weed control at 250 g/ha (eastern black nightshade; pre-emergence, 250 g ai/ha, scale 0-100, read-out: Plant response rating, Nightshade): 100%
pest or weed control at 500 g/ha (eastern black nightshade; pre-emergence, 500 g ai/ha, scale 0 to 100 (0 no effect, 100 complete control), visual, 12 to 14 days, read-out: Plant response rating, Nightshade): 100%
pest or weed control at 62 g/ha (yellow nutsedge; Cyperus, pre-emergence, 62 g ai/ha, preemergence, scale 0 to 100, read-out: Plant response rating, Nutsedge, Yellow): 0%
pest or weed control at 125 g/ha (yellow nutsedge; Cyperus, pre-emergence, 125 g ai/ha, scale 0 (no effect) to 100 (complete control), visual, 12 to 14 days, read-out: Plant response rating, Nutsedge, Yellow): 5%
pest or weed control at 250 g/ha (yellow nutsedge; Cyperus, pre-emergence, 250 g ai/ha, scale 0-100, read-out: Plant response rating, Nutsedge, Yellow): 20%
pest or weed control at 500 g/ha (yellow nutsedge; Cyperus, pre-emergence, 500 g ai/ha, scale 0 to 100 (0 no effect, 100 complete control), visual, 12 to 14 days, read-out: Plant response rating, Nutsedge, Yellow): 60%
plant injury at 62 g/ha (soybean; Glycine max, pre-emergence, 62 g ai/ha, preemergence, scale 0 to 100, read-out: Plant response rating, Soybean): 0%
plant injury at 250 g/ha (soybean; Glycine max, pre-emergence, 250 g ai/ha, scale 0-100, read-out: Plant response rating, Soybean): 50%
plant injury at 500 g/ha (soybean; Glycine max, pre-emergence, 500 g ai/ha, scale 0 to 100 (0 no effect, 100 complete control), visual, 12 to 14 days, read-out: Plant response rating, Soybean): 100%
